The term inhibition denotes the relative decrease from the control value, in per cent.

“And” between values parts separate entries of the source, which are not always exact repeats. Equal values may be shown once.

In one series the target is site I of HSA (Homo sapiens, UniProt P02768). Description: Fluorescence competitive binding assay with site‐selective probe DNSA. The following applies: for Competitive inhibition rate of the probe binding, Site I / Inhibition ratio, site I: DNSA probe; for Competitive inhibition rate of the probe binding, Site I: 100 µM, n = 3, mean ± SE; for inhibition at 100 µM: human, defatted human serum albumin (HSA) in phosphate buffer, pH 7.4, probe dansylamide (DNSA).
Chain of site I of HSA (P02768 25-609): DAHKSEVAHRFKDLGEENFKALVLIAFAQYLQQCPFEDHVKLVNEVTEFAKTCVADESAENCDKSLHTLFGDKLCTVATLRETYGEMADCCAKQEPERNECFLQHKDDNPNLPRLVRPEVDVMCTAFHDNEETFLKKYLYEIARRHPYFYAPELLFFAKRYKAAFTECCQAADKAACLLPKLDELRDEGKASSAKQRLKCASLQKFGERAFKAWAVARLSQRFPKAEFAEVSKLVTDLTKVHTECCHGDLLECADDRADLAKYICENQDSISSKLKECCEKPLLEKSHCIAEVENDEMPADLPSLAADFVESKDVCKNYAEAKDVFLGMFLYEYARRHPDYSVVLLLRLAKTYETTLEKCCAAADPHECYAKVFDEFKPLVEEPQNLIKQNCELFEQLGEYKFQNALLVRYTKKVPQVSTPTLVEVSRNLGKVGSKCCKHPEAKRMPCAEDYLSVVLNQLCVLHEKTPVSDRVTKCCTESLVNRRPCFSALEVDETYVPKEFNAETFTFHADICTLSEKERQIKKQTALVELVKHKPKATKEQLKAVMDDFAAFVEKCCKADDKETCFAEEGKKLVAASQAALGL

The next series addresses site II of HSA (Homo sapiens, UniProt P02768). Description: Fluorescence competitive binding assay with site‐selective probe BD140. The following applies: for Competitive inhibition rate of the probe binding, Site II: BD140 probe, 100 µM, n = 3, mean ± SE; for inhibition at 100 µM: human, defatted human serum albumin (HSA) in phosphate buffer, pH 7.4, probe BD140.
Series [1] in a line: Tissue distribution after 22 days of 8‐PN or naringenin mixed diet. The following applies: for Percentage of aglycone in the liver: aglycone to total; for 8‐PN aglycone in the liver: without deconjugation. Type of series: in vivo, C57/BL6 mice. The text has this:
We planned the nutritional composition and feeding period according to previous similar research (Andres-Lacueva et al., [2012]; Bieger et al., [2008]; Boer et al., [2005]; Mukai et al., [2013]; Takumi et al., [2011]). […] Though this dose concentration may not be achieved through regular diet or supplementation, this concentration was used in accordance with previous studies that evaluated the tissue distribution of flavonoids (0.2% [w/w]) (Mukai et al., [2013]; Takumi et al., [2011]). The mice were fed each diet via normal oral feeding for 22 days. In the pharmacokinetic study (Section 2.5), we administered each nutrient to mice at a dose of 50 mg/kg body weight (BW) via oral gavage after 18 h of starvation. Although this dose concentration may not reflect regular diet or supplementation, this or higher concentrations have been applied for pharmacokinetic study of flavonoids (Bai et al., [2020]; Hung et al., [2018]; Mukai et al., [2013]). All experimental protocols were approved by the Committee on Animal Experiments of Tokushima University (approval number: 11013). All efforts were made to minimize animal suffering. Seven-week-old male C57/BL6 mice (Japan SLC) were housed in a room maintained at 23 ± 1°C under a 12-h/12-h light/dark cycle. Diets consisted of 8-PN or naringenin (0.56 mmol/kg diet) mixed with AIN-93M (AIN-93M; Oriental Yeast Company), with the cellulose contents reduced to adjust the composition of other nutrients. The mice (n = 7 or 8) were fed these diets via normal oral feeding for 22 days and allowed free access to water. The liver, kidneys, quadricep muscles, pancreas, lungs, brain, spleen, and heart were collected from the mice under anesthesia and weighed. Before freezing, the liver tissues were flushed with ice-cold phosphate-buffered saline (PBS, pH 7.4) to avoid blood contamination. All samples were stored at -80°C under N2 gas until extraction of flavonoid. Sample preparation was performed according to a previous report (Mukai et al., [2013]). Each tissue was homogenized in PBS on ice (nine times the volume of the tissue wet weight) using a Teflon homogenizer (As One). […] The hydrolysates were then subjected to extraction three times with equal volumes of ethyl acetate and evaporated using a centrifugal evaporator (CVE-100; Tokyo Rikakikai). The extracts were dissolved in 50 μl of methanol containing 0.5% phosphoric acid. Then, 20 μl from each sample was injected into the HPLC-UV system. […] Shimadzu) with a Cadenza CD-C18 HPLC column (3 μm, 4.6 × 150 mm; […]). […] 8-PN and naringenin amounts were determined using an internal standard method. […] Since a clear peak was actually detected for 8-PN over 2 pmol (0.1 μM), and for naringenin over 4 pmol (0.2 μM) based on visual evaluation, we determined these concentrations were the LODs for each flavonoid.

Details of series [2]: method as in Rad et al., 2006. The following applies: postmenopausal women, mostly conjugated metabolites, ref Rad et al., 2006; cited from earlier work.

Chain of site II of HSA (P02768 25-609): as above
Method for site I of HSA: (§1) A fluorescent dye cocktail containing 0.33 mM BD140 and 1 mM DNSA was prepared in DMSO. Defatted HSA (A3782‐1G; Sigma‐Aldrich) was dissolved in phosphate buffer (pH 7.4) at a concentration of 0.67 mg/ml. Each flavonoid was dissolved in DMSO (stock solution) at 100 times the test concentration. Subsequently, 637 µl HSA solution, 6.5 µl fluorescent dye cocktail, and 6.5 µl flavonoid were mixed and divided into three wells on a 96‐well multi‐black plate. The final concentration of flavonoids was 1–100 μM. […] The HSA‐binding affinities of the flavonoids were evaluated by measuring the competitive inhibition rate of the probes binding to flavonoids according to Equation (1): (1) Flavonoidinhibitionpercentage(%)=F1‐F2/F1×100, where F 1 is the fluorescence intensity of DMSO and F 2 represents the fluorescence intensity of each flavonoid.
Method for site II of HSA: as §1

As for `O=C1C[C@@H](c2ccc(O)cc2)Oc2cc(O[C@@H]3O[C@H](C(=O)O)[C@@H](O)[C@H](O)[C@H]3O)cc(O)c21` [N7G, naringenin 7‐glucuronide, reference compound], on site I of HSA, the “Competitive inhibition rate of the probe binding, Site I” value came out at 10.0 ± 3.0%. Also, the “Competitive inhibition rate of the probe binding, Site II” value (“Competitive inhibition rate … Site II” below) at site II of HSA is 9.6 ± 4.8%.

As for `O=C1C[C@@H](c2ccc(O[C@@H]3O[C@H](C(=O)O)[C@@H](O)[C@H](O)[C@H]3O)cc2)Oc2cc(O)cc(O)c21` [N4′G, Naringenin 4′‐glucuronide, reference compound], the “Competitive inhibition rate of the probe binding, Site I” value on site I of HSA stood at 5.2 ± 2.8%. For the same compound, at site II of HSA, the “Competitive inhibition rate … Site II” value is given as 2.4 ± 2.4%.

As for `CC(C)=CCc1c(O)cc(O)c2c1OC(c1ccc(O[C@@H]3O[C@H](C(=O)O)[C@@H](O)[C@H](O)[C@H]3O)cc1)CC2=O` (stereo partly shown) [8‐PN‐4′G, 8‐PN 4′‐glucuronide], on site I of HSA, the “Competitive inhibition rate of the probe binding, Site I” value is “n.d. ^a (The result without competitive inhibition (≤0) with the fluorescent probe is shown as not determined (n.d.))”. For the same compound, the “Competitive inhibition rate … Site II” value at site II of HSA is given as “n.d. ^a (The result without competitive inhibition (≤0) with the fluorescent probe is shown as not determined (n.d.))”.

Take `CC(C)=CCc1c(O[C@@H]2O[C@H](C(=O)O)[C@@H](O)[C@H](O)[C@H]2O)cc(O)c2c1OC(c1ccc(O)cc1)CC2=O` (stereo partly shown) [8‐PN‐7G, 8‐PN 7‐glucuronide]: the “Inhibition ratio, site I” value at site I of HSA (1 µM) is reported as 12.8%; at site I of HSA (50 µM), 37.9%. For the same compound, the “Competitive inhibition rate of the probe binding, Site I” value on site I of HSA came out at 37.2 ± 0.6 %. Also, the “Binding constant to HSA” value on site I of HSA (from competition profile for site I (Figure 3)) is 24200 M. Besides, the “Competitive inhibition rate … Site II” value on site II of HSA is reported as “n.d. ^a (The result without competitive inhibition (≤0) with the fluorescent probe is shown as not determined (n.d.))”.

In the case of `O=C1C[C@@H](c2ccc(O)cc2)Oc2cc(O)cc(O)c21` [Naringenin], the figures for the inhibition at 100 µM on site I of HSA and on site II of HSA were 25.3 ± 0.4% and 8.3 ± 3.9%, respectively.

Turning to `CC(C)=CCc1c(O)cc(O)c2c1O[C@H](c1ccc(O)cc1)CC2=O` [8‐PN, 8‐Prenylnaringenin], the “Percentage of aglycone in the liver” value was 11.7% in series [1] (average of 7 mice); 15.9% and 20.9% and 9.5% and 6.3% and 7.8% and 5.7% and 15.7% in series [1] (individual mice #1-7). In addition, the “8‐PN aglycone in the liver” value is 1.58 nmol/g wet tissue in series [1] (average of 7 mice); 0.62 nmol/g wet tissue and 3.23 nmol/g wet tissue and 1.62 nmol/g wet tissue and 1.50 nmol/g wet tissue and 0.66 nmol/g wet tissue and 1.18 nmol/g wet tissue and 2.24 nmol/g wet tissue in series [1] (individual mice #1-7, 22 days diet). The “Time of absorption into the bloodstream after oral administration” value in series [2] was 1 to 1.5 h. Also, the “Inhibition ratio, site I” value stood at 10.3% at site I of HSA (1 µM) and 36.7% at site I of HSA (50 µM). The inhibition at 100 µM was found to be 61.1 ± 0.6% at site I of HSA and 28.3 ± 2.8% at site II of HSA.
